Measurements from patent US20230310393A1 (Tianjin Creatron Biotechnology Co., Ltd., priority 2020, published 2023).
Counter-ions that a name gives are not always drawn.

Columns and labels:
[1] = Screening of crystallization inhibitors: sorafenib content in polymer carrier/cholate medium over time; assay type: physicochemical; conditions: pH 6.8 phosphate + 0.1% SDS with the inhibitor, 37° C.
[2] = Solubility test of solid dispersions (pH 1.0 hydrochloric acid, pH 6.8 phosphate buffer, FaSSGF, FaSSIF); assay type: physicochemical; conditions: pH 1.0 hydrochloric acid solution, 37° C., main drug:carrier 1:3
Protocol: An appropriate amount of solid dispersion (SD) was added to a pH 1.0 hydrochloric acid solution and a pH 6.8 phosphate buffer solution, while keeping the SD in excess, and shaken at 37° C. in a shaker at 300 rpm.

SMILES	Sorafenib content detection ([1]; 0.5 h) [µg/mL]	Sorafenib content detection ([1]; 1 h) [µg/mL]	Sorafenib content detection ([1]; 2 h) [µg/mL]	Sorafenib content detection ([1]; 3 h) [µg/mL]	Sorafenib content detection ([1]; 4 h) [µg/mL]	Sorafenib content detection ([1]; 6 h) [µg/mL]	Solubility ([2]; 0.5 h) [µg/mL]	Solubility ([2]; 2 h) [µg/mL]	Solubility ([2]; 4 h) [µg/mL]
C[C@H](CCC(=O)NCC(=O)[O-])[C@H]1CC[C@H]2[C@@H]3[C@H](O)C[C@@H]4C[C@H](O)CC[C@]4(C)[C@H]3C[C@H](O)[C@]12C.[Na+] [0.3% SGC, sodium glycocholate]	14.32	5.88	4.32	3.98	3.77	3.57			
C[C@H](CCC(=O)NCC(=O)[O-])[C@H]1CC[C@H]2[C@@H]3[C@H](O)C[C@@H]4C[C@H](O)CC[C@]4(C)[C@H]3CC[C@]12C.[Na+] [0.3% SGCDC, sodium glycochenodeoxycholate]	61.59	47.08	10.41	5.38	4.28	3.68			
C[C@H](CCC(=O)NCC(=O)[O-])[C@H]1CC[C@H]2[C@@H]3CC[C@@H]4C[C@H](O)CC[C@]4(C)[C@H]3C[C@H](O)[C@]12C.[Na+] [0.3% SGDC, sodium glycodeoxycholate]	15.78	6.28	4.11	4.01	4.04	3.87			
C[C@H](CCC(=O)NCCS(=O)(=O)[O-])[C@H]1CC[C@H]2[C@@H]3[C@@H](O)C[C@@H]4C[C@H](O)CC[C@]4(C)[C@H]3CC[C@]12C.[Na+] [0.3% STCDC]	14.43	6.22	4.69	4.79	4.81	5.79			
C[C@H](CCC(=O)NCCS(=O)(=O)[O-])[C@H]1CC[C@H]2[C@@H]3CC[C@@H]4C[C@H](O)CC[C@]4(C)[C@H]3C[C@H](O)[C@]12C.[Na+] [0.3% STDC, sodium taurodeoxycholate]	47.72	25.90	11.19	7.82	6.58	5.90			
CNC(=O)c1cc(Oc2ccc(NC(=O)Nc3ccc(Cl)c(C(F)(F)F)c3)cc2)ccn1 [TSSLFN, Sorafenib tosylate]							3.7	4.1	4.1
